Source: PMC3462190, “A Peptidic Unconjugated GRP78/BiP Ligand Modulates the Unfolded Protein Response and Induces Prostate Cancer Cell Death” (PLoS ONE, 2012)
Where no end group is shown, it is not given here.

B1: Bag-1: cochaperone Bag-1, HA-tagged (pcDNA3.1-HA-Bag-1), or endogenous (protein)
chain: TPLSALGIQDGCRVMLIGKKNSPQEEVELKKLKHLEKSVEKIADQLEELNKELTGIQQGFLPKDLQAE
modifications: left off: HA, end not stated, kept
notes: cochaperone Bag-1, HA-tagged (pcDNA3.1-HA-Bag-1), or endogenous
B2: Bag-1 peptide: internal sequence of 68 amino acids of Bag-1 (Bag1-L 202–269), HA-tagged, expressed from pcDNA3 (peptide)
chain: B1 chain
modifications: also: HA tag, end not given here

Key:
GRP78/BiP = experiment: GST pull-down with GRP78/BiP; type: binding; conditions: for interaction with GRP78/BiP: GST-fused protein/peptide, 22Rv.1 cell lysate, Western blot
Procedure: (§1) Expression of GST fusion proteins for GST-pull-down experiments were performed essentially as described previously.
(§2) Figure 1 Bag-1 proteins interact with the molecular chaperone GRP78/BiP. A. The Bag-1 family of proteins binds GRP78/BiP. GST pull-down assay was performed incubating 5 µg each of GST-fused Bag-1 proteins with 400 µg of 22Rv.1 cell lysate. Western blotting with a specific antibodiy against GRP78/BiP was used to detect the binding and an anti-GST antibody was used to determine the amount of bacterially purified protein employed in the assay. B. Bag-1 and GRP78 interact in vivo. GRP78 was immunoprecipitated with an anti-GRP78/BiP antibody or IgG as control in 22Rv.1 cells. Western blotting with an anti-Bag-1 and anti-GRP78 antibody was performed to determine GRP78-Bag-1 interaction. C. Bag-1 and GRP78/BiP show a perinuclear colocalization. Confocal microscopic analyses were carried out in 22Rv.1 cells that have been paraformaldehyde-fixed and stained with a Bag-1 antibody to detect Bag-1 (green channel) and a GRP78/BiP specific antibody to detect GRP78/BiP (red channel). The orange staining in the merge of the two channels indicates the degree of co-localization of the two proteins. All images (40X) were acquired with a Leica TCS SPE confocal microscope (Leica Microsystems; Scale bars indicate 25 µm). D. Diagrammatic representation of the domains of GRP78. E. Bag-1 binds to multiple sites on GRP78. GST-pull down assay performed incubating 500 µg lysate of HEK-293 cells transfected with an HA-tagged Bag-1 and 10 µg GST-fused GRP78 full length and its ATPase and substrate binding domain (SBD). Western blot analysis was carried out using an HA antibody to detect the Bag-1-tagged protein.
Figure 5 An N-terminal unfolded fragment of the Bag-1 peptide is sufficient to reduce tumor cell growth. A. Schematic diagram of the Bag-1 peptide and its deletion mutants. The ubiquitin-like domain is represented in blue and the BAG domain in red. The numbers refer to the amino acid positions of the different domains. The amino acid residues are numbered following the numbering for Bag-1L. B. Prediction of the secondary structure of the Bag-1 peptide, showing an N-terminal β-hairpin from the ubiquitin-like domain (blue) and a C-terminal α-helix from the BAG domain (red). C. Normalized circular dichroism spectra of the Bag-1 peptides. 30 µM of the Bag-1 peptide were measured in 20 mM KHPO4 buffer, pH 6.8 (black line). […] 12 µM of the N-term peptide (green line) and 11 µM of C-term (blue line) were measured under the same conditions. […] Cells transfected with the indicated constructs were selected in medium containing neomycin and the colonies formed were quantified. […] Tumor size was measured once per week using a caliper and expressed as tumor volume in mm^3. […]

SBD of GRP78/BiP = experiment: GST pull-down with substrate binding domain (SBD) of GRP78/BiP; conditions: 10 µg GST-GRP78(SBD), 500 µg (N-terminal peptide: 100 µg) lysate of HEK-293 cells expressing HA-tagged construct
Procedure: as §1, §2
Figure 2 Identification of Bag-1 peptide interfering with the action of GRP78/BiP. […] Depicted in blue and red are the ubiquitin-like domain and the BAG domain respectively. B. Identification of the Bag-1 peptide binding to GRP78/BiP. GST-pull down assay performed incubating 500 µg lysates from HEK-293 cells transfected with the indicated Bag-1 constructs and 10 µg of GST-GRP78(SBD) or GST as control. Western blot analysis with an HA antibody to detected the Bag-1 mutants is shown. […] C. The Bag-1 68 amino acid peptide binds in vivo to GRP78. HEK 293 cells were co-transfected with pcDNA-HA-tagged Bag-1 peptide. […] Thereafter luciferase activity was measured. Results are expressed as percentage of refolding activity relative to non-heat-shocked cells and presented as bar charts of the average of three independent experiments ± SEM. *p<0.05. […]

Molecule | interaction with GRP78/BiP (GRP78/BiP) | interaction with SBD of GRP78/BiP (SBD of GRP78/BiP) | further results
C-terminal peptide: 28 C-terminal fragment of the Bag-1 peptide (Bag-1L 241–269) (EKIADQLEELNKELTGIQQGFLPKDLQAE; not fully specified) | not the C-terminal peptide bound to GRP78/BiP |  | 
N-terminal peptide: N-terminal 40 residues of the Bag-1 peptide (Bag-1L 202–241) (TPLSALGIQDGCRVMLIGKKNSPQEEVELKKLKHLEKSVE; not fully specified) | bound to GRP78/BiP | interacted preferentially with the SBD | 
ΔUbi peptide: Bag-1 peptide lacking the ubiquitin-like domain portion (Bag-1L 220–269) (KKNSPQEEVELKKLKHLEKSVEKIADQLEELNKELTGIQQGFLPKDLQAE; not fully specified) | abrogated the binding to GRP78 |  | 
B1 |  | interacted not only with the full length GRP78/BiP but also with its ATPase and SBD | interaction with full length GRP78/BiP (GRP78/BiP; 10 µg GST-fused GRP78 full length, lysate of HEK-293 cells expressing HA-tagged Bag-1): interacted not only with the full length GRP78/BiP
B2 |  |  | interaction with SBD of GRP78/BiP (SBD of GRP78/BiP; listed as 68 amino acid sequence): required for binding the SBD of GRP78/BiP; interaction with SBD of GRP78/BiP (SBD of GRP78/BiP; listed as full length 68 amino acid peptide): interacted with both the SBD and ATPase binding domains of GRP78
